These results are taken from patent publication US20170196913A1, “ENHANCEMENT OF GLUCOSE-STIMULATED INSULIN SECRETION BY CELLS THROUGH INDUCTION OF CELLULAR SENESCENCE” (YISSUM RESEARCH DEVELOPMENT COMPANY OF THE HEBREW …, priority 2016, published 2017).

Type in all cases: cell-based, human
Assay [1] deals with EndoC-βH2 cells. The experiment in a line: Mitochondrial activity (membrane potential) by TMRE staining, FACS, of Cre-infected EndoC-βH2 cells. Conditions: EndoC-βH2 cells three weeks after Cre infection.
Assay [2] deals with EndoC-βH2 cells. The experiment in a line: Glucose stimulated insulin secretion (GSIS) of Cre-infected EndoC-βH2 cells, ELISA. Details: GSIS (insulin levels secreted): dose or concentration left out as unconfirmed. The following applies: EndoC-βH2 cells infected with Cre, versus vehicle. (ELISA stands for enzyme-linked immunosorbent assay.)
Assay [3] has as its system EndoC-βH2 cells. Briefly: Cell size (FSC) by FACS of Cre-infected EndoC-βH2 cells. Conditions: EndoC-βH2 cells three weeks after Cre infection, 250 nM Torin1 versus vehicle. (In flow cytometry, cells or beads pass a laser one at a time.)

SMILES strings stand for the structures.

As to `O=C(Nc1ccccc1)c1cc([N+](=O)[O-])ccc1Cl` [GW9662], the “mitochondrial activity (TMRE staining)” value in assay [1] (GW9662 50 mM twice a week, versus vehicle) is “reduced”. The “GSIS (insulin levels secreted)” value in assay [2] (GW9662 twice a week for 3 weeks) is “reduced GSIS”.
On to `CCC(=O)N1CCN(c2ccc(-n3c(=O)ccc4cnc5ccc(-c6cnc7ccccc7c6)cc5c43)cc2C(F)(F)F)CC1` [Torin1], for which the “mitochondrial activity (TMRE staining)” value in assay [1] (250 nM Torin1 versus vehicle) is recorded as “reduced”. The “cell size (FSC)” value in assay [3] is “reduced size”. Further, the “levels of insulin secretion” value in assay [2] (250 nM Torin1 starting 3 days after infection, for 3 weeks, low glucose 2.8 mM then high glucose 16.7 mM for 1 hour) was “lower levels of insulin secretion”.
